Data on three molecules can be found in paper PMC4459817, “Vasculotide reduces endothelial permeability and tumor cell extravasation in the absence of binding to or agonistic activation of Tie2” (EMBO Molecular Medicine, 2015).

Broadly, the koff is a measure of how fast the partners let go of each other.

For experiment [1], the system named is advanced metastatic breast cancer. The following applies: monotherapy or combined with chemotherapies; ref Ebos & Kerbel, 2011; Mackey et al, 2012; cited from earlier work. An excerpt:
These clinical results were recently replicated in a preclinical model of postsurgical advanced MBC (Guerin et al, [2013]). As discussed previously (Guerin et al, [2013]), primary and secondary tumors may have divergent responses to anti-angiogenic ...

Experiment [2] shares this test system. Particulars: ref Yardley et al, 2012; cited from earlier work. An excerpt:
Another possible explanation for the apparent insensitivity of MBC to TKI treatments is that the growth of secondary tumors post-metastatic colonization of the lung/liver may still be susceptible to the intended anti-angiogenic inhibition, but that these growth-inhibitory benefits may be diluted by concurrent unintended drug effects that promote tumor spread.

In experiment [3] the test system is CMPTX-labeled tumor cells across HMVEC-DBl. Nature of the experiment: modified Boyden chamber, trans-endothelial tumor cell migration, HMVEC-DBl. Format: cell-based, human. The following applies: Fig1E. The method, then:
ECs were first treated with Vasculotide (VT), PBS (vehicle/negative control), Ang1 (positive control), PEG-Cys (polyethylene glycol backbone), T7c (non-PEGylated CHHHRHSF peptides), or VT in the presence of 100-fold molar excess of T7c. The concentrations used, 10–20 ng/mL VT and 200–400 ng/mL Ang1, are estimated molar equivalents (0.71–1.43 nM). Thirty minutes later, ECs were stimulated with thrombin, 0.1% BSA (vehicle/negative control), or EDTA (positive control). Another 30mins later, the amount of FITC-dextran diffusion into the lower chambers (A, D) provides a measure of endothelial permeability. CMTPX-labeled tumor cells (TCs) were then dispensed into inserts, and the amount of TC fluorescence emitting from the underside of insert membranes after 20 h (B–C) or 28 h (E) reflects the efficiency of trans-endothelial TC migration. […] Three experiments (twice with HMVEC-LBl and once with HMVEC-DBl) were run with n = 3–5 inserts (independent biological replicates) per group and analyzed by two-sampled unpaired t-tests. […]
Endothelial cells (ECs) were grown on cell culture inserts with uncoated 8-μm-pore PET filter membranes to 100% confluency. […] After 30 min of thrombin stimulation or 4–6 h of TC-CM stimulation, FITC fluorescence (ex/em = 490/520 nm) was measured from a 50 μl sample of the lower chamber media. […]

The target of experiment [4] is T1, mouse Tie2-Fc (Fc-conjugated extracellular domain of Tie2) (mouse, UniProt Q02858 23-746).
T1 chain: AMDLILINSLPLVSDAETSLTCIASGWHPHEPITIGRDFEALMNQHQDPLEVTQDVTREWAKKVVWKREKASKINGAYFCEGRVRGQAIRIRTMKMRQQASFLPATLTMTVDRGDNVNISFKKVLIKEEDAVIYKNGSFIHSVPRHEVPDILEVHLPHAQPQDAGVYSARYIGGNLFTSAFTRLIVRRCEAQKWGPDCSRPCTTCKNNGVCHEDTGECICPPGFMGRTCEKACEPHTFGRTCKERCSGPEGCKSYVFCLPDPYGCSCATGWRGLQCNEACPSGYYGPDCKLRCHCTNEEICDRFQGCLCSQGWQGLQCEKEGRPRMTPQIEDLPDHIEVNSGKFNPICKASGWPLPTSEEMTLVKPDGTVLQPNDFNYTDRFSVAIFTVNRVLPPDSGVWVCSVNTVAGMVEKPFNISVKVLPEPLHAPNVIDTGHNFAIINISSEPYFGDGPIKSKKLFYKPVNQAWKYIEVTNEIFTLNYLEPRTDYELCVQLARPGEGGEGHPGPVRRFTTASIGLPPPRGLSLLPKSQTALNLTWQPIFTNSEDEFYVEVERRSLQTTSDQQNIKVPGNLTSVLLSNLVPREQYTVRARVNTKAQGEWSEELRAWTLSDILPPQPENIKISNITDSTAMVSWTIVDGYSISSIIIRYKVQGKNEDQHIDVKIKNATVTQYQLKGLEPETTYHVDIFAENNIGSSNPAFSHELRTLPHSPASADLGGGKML
Nature of the experiment: SPR.

As to `CCN(CC)CCNC(=O)c1c(C)[nH]c(/C=C2\C(=O)Nc3ccc(F)cc32)c1C` [sunitinib, reference compound], the “phase III clinical trial outcome” value in experiment [1] is “repeatedly failed in multiple phase III clinical trials”. In experiment [2], the “response rate, distally disseminated visceral metastatic disease” value is listed as 9% and the “response rate, locoregionally growing superficial metastatic disease” value is 20%.
“CHHHRHSF [Vasculotide, 4-armed maleimide-functionalized polyethylene glycol (PEG) backbone to link together four cysteine-capped T7 peptides, that is, CHHHRHSF]”: in experiment [3] (28 h), the “thrombin-stimulated migration of CMTPX-labeled TCs” value is “trends of reducing thrombin-stimulated migration”. The “TC migration effect of VT in presence of 100-fold molar excess of T7c” value in experiment [3] is recorded as “dampened the effects of VT”.

B1: recombinant human Ang1 (rhAng1) (ligand, UniProt Q15389 16-498, looked up)
chain: HIGCSNQRRSPENSGRRYNRIQHGQCAYTFILPEHDGNCRESTTDQYNTNALQRDAPHVEPDFSSQKLQHLEHVMENYTQWLQKLENYIVENMKSEMAQIQQNAVQNHTATMLEIGTSLLSQTAEQTRKLTDVETQVLNQTSRLEIQLLENSLSTYKLEKQLLQQTNEILKIHEKNSLLEHKILEMEGKHKEELDTLKEEKENLQGLVTRQTYIIQELEKQLNRATTNNSVLQKQQLELMDTVHNLVNLCTKEGVLLKGGKREEEKPFRDCADVYQAGFNKSGIYTIYINNMPEPKKVFCNMDVNGGGWTVIQHREDGSLDFQRGWKEYKMGFGNPSGEYWLGNEFIFAITSQRQYMLRIELMDWEGNRAYSQYDRFHIGNEKQNYRLYLKGHTGTAGKQSSLILHGADFSTKDADNDNCMCKCALMLTGGWWFDACGPSNLNGMFYTAGQNHGKLNGIKWHYFKGPSYSLRSTTMMIRPLDF
notes: angiopoietin-1, human, recombinant; also called angiopoietin-1; source: bought: R&D Systems (named for the Boyden chamber experiments)
Turning to B1, the off-rate (koff) in experiment [4] was found to be 0.00033 s⁻¹.
